Converted amounts (≈) assume the structure as drawn. Where two headings read alike, the source gives them in different places.
Tests used:
[1] = tested on: Streptococcus Group D 2041; assay: MIC, standard agar-dilution assay (Table IX); type: cell-based; details: GROUPD2041, read-out: MIC
[2] = tested on: Streptococcus pyogenes C203; assay: MIC, standard agar-dilution assay (Table IX); type: cell-based; details: read-out: MIC
[3] = tested on: Staphylococcus epidermidis EPI1; assay: MIC, standard agar-dilution assay (Table IX); type: cell-based; details: Staphylococcus epidermidis EPI1; agar-dilution; read-out: MIC
[4] = tested on: Pasteurella multocida; assay: Pasteurella infection in one-day-old chicks, medicated drinking water (Table XIII); type: in vivo; details: Administered in the available drinking water at 2 g/gal
Protocol: (§1) Many of the C-20 modified derivatives of this invention have also shown in vivo antibacterial activity against infections induced by gram-negative bacteria. Tables XII and XIII summarize the results of tests in which illustrative compounds were evaluated against a Pasteurella infection in one-day-old chicks. The compounds were administered parenterally or orally after challenge of the chicks with Pasteurella multocida (0.1 ml of a 10^-4 dilution of a twenty-hour tryptose broth culture of an avian P. multocida given subcutaneously). In these tests, unless indicated otherwise, all non-medicated infected chicks died within 24 hours of Pasteurella challenge. In the tests summarized in Table XII, the compounds were administered by subcutaneous injection at a dosage of 30 mg/kg, 1 and 4 hours post-challenge of the chicks with P. multocida. In the tests summarized in Table XIII the compounds were administered in medicated drinking water (at a level of 2 g/gal) available from 4 to 20 hours prior to challenge of the chicks with P. multocida and during the 3 -day test period.
^a Administered in the available drinking water at a concentration of […]

[5] = tested on: Escherichia coli N10; assay: MIC, standard agar-dilution assay (Table IX); type: cell-based; details: read-out: MIC
[6] = tested on: Streptococcus Group D X66; assay: MIC, standard agar-dilution assay (Table IX); type: cell-based; details: read-out: MIC
[7] = tested on: Streptococcus pyogenes C203; assay: ED50 in mice experimentally infected with S. pyogenes C203 (Table XI); type: in vivo; details: Streptococcus pyogenes, doses given 1 and 4 hours postinfection, read-out: ED50
In short: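 Mice infected with S. pyogenes C203 received two doses of compound, 1 and 4 h post-infection. ED50 is the dose in mg/kg (per dose, ×2) protecting 50% of animals.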

[8] = tested on: Haemophilus influenzae C.L.; assay: MIC, standard agar-dilution assay (Table IX); type: cell-based; details: Ampicillin-sensitive strain, read-out: MIC
[9] = tested on: Staphylococcus aureus X400; assay: MIC, standard agar-dilution assay (Table IX); type: cell-based; details: Staphylococcus aureus X400, Methicillin-resistant strain, read-out: MIC
[10] = tested on: Staphylococcus aureus S13E; assay: MIC, standard agar-dilution assay (Table IX); type: cell-based; details: Staphylococcus aureus, S13E
[11] = tested on: Klebsiella X26; assay: MIC, standard agar-dilution assay (Table IX); type: cell-based; details: read-out: MIC
[12] = tested on: Pasteurella multocida; assay: Pasteurella infection in one-day-old chicks, subcutaneous administration (Table XII); type: in vivo; details: Administered subcutaneously, 30 mg/kg × 2, 1 and 4 hours post-challenge
Protocol: as §1
^a Administered subcutaneously; 30 mg/kg × 2

[13] = tested on: Staphyloccus aureus X1.1; assay: MIC, standard agar-dilution assay (Table IX); type: cell-based, Staphylococcus aureus; details: Staphylococcus aureus, read-out: MIC
[14] = tested on: Staphylococcus epidermidis 222; assay: MIC, standard agar-dilution assay (Table IX); type: cell-based; details: read-out: MIC
[15] = tested on: Staphylococcus aureus; assay: MIC, broth-dilution microtiter test (Table X); type: cell-based; details: read-out: MIC
Source text: (§2) The MIC's in Table X were obtained using conventional broth-dilution microtiter tests.

[16] = tested on: Mycoplasma gallisepticum 29C; assay: MIC, broth-dilution microtiter test (Table X); type: cell-based; details: Mycoplasmoides gallisepticum, read-out: MIC
Source text: as §2

[17] = tested on: Mycoplasma synoviae 40A; assay: MIC, broth-dilution microtiter test (Table X); type: cell-based; details: Mycoplasmopsis synoviae, read-out: MIC
Source text: as §2

[18] = tested on: Mycoplasma hyopneumoniae S5972; assay: MIC, broth-dilution microtiter test (Table X); type: cell-based; details: Mesomycoplasma hyopneumoniae, read-out: MIC
Source text: as §2

[19] = tested on: Pasteurella multocida 60A; assay: MIC, broth-dilution microtiter test (Table X); type: cell-based; details: Avian isolate, read-out: MIC
Source text: as §2

[20] = tested on: Pasteurella hemolytica 22C; assay: MIC, broth-dilution microtiter test (Table X); type: cell-based; details: read-out: MIC
Source text: as §2

[21] = tested on: Mycoplasma hyorhinis 29E; assay: MIC, broth-dilution microtiter test (Table X); type: cell-based; details: read-out: MIC
Source text: as §2

[22] = tested on: Pasteurella multocida 17E; assay: MIC, broth-dilution microtiter test (Table X); type: cell-based; details: Bovine isolate, read-out: MIC
Source text: as §2

[23] = tested on: Streptococcus sp. 19F; assay: MIC, broth-dilution microtiter test (Table X); type: cell-based; details: read-out: MIC
Source text: as §2

[24] = tested on: Staphylococcus aureus V41; assay: MIC, standard agar-dilution assay (Table IX); type: cell-based; details: Staphylococcus aureus V41, Penicillin-resistant strain, read-out: MIC
[25] = tested on: Streptococcus pneumoniae Park I; assay: MIC, standard agar-dilution assay (Table IX); type: cell-based; details: Streptococcus pneumoniae Park I; agar-dilution; read-out: MIC
[26] = tested on: Escherichia coli TEM; assay: MIC, standard agar-dilution assay (Table IX); type: cell-based; details: read-out: MIC
[27] = tested on: Haemophilus influenzae 76; assay: MIC, standard agar-dilution assay (Table IX); type: cell-based; details: Haemophilus influenzae 76, Ampicillin-resistant strain, read-out: MIC
[28] = tested on: Escherichia coli EC14; assay: MIC, standard agar-dilution assay (Table IX); type: cell-based; details: read-out: MIC
[29] = Titratable groups in 66% aqueous DMF (Tables XIV-XVI); type: physicochemical
Source text: ^c Run in 66% aqueous DMF
^d Run in 66% aqueous DMF

Row | Compound | MIC [1] [µg/mL] | MIC [2] [µg/mL] | MIC [3] [µg/mL] | Number of Deaths/Number Treated [4] | MIC [5] [µg/mL] | MIC [6] [µg/mL] | MIC [8] [µg/mL] | MIC [9] [µg/mL] | MIC [10] [µg/mL] | MIC [11] [µg/mL] | Number of Deaths/Number Treated [12] | MIC [13] [µg/mL] | MIC [14] [µg/mL] | MIC [15] [µg/mL] | MIC [16] [µg/mL] | MIC [17] [µg/mL] | MIC [18] [µg/mL] | MIC [19] [µg/mL] | MIC [20] [µg/mL] | MIC [21] [µg/mL] | further results
1 | CCC1OC(=O)CC(O)C(C)C(OC2OC(C)C(O)C(N(C)C)C2O)C(CCN2CC=CCC2)CC(C)C(=O)C=CC(C)=CC1COC1OC(C)C(O)C(OC)C1OC (stereo not drawn) [Compound D22, 20-DH-DO-20-(1,2,3,6-Tetrahydropyridin-1-yl)desmycosin] | 8 (≈ 9.53 µM) | 0.25 (≈ 0.298 µM) | 0.5 (≈ 0.596 µM) | 5/10 | > 128 | 8 (≈ 9.53 µM) | 16 (≈ 19.1 µM) | 1 (≈ 1.19 µM) | 0.5 (≈ 0.596 µM) | 64 (≈ 76.3 µM) | 0/10 | 1 (≈ 1.19 µM) | 0.25 (≈ 0.298 µM) | 1.56 (≈ 1.86 µM) | 0.78 (≈ 0.93 µM) | 0.78 (≈ 0.93 µM) | 1.56 (≈ 1.86 µM) | 12.5 (≈ 14.9 µM) | 3.12 (≈ 3.72 µM) | 25 (≈ 29.8 µM) | ED50 ([7]; C203, Oral): 40 mg/kg; ED50 ([7]; C203, sc, Subcutaneous): 0.8 mg/kg; MIC [22]: 12.5 µg/mL (≈ 14.9 µM); MIC [23]: 3.12 µg/mL (≈ 3.72 µM); MIC [24]: 0.5 µg/mL (≈ 0.596 µM); MIC [25]: 1 µg/mL (≈ 1.19 µM); MIC [26]: 64 µg/mL (≈ 76.3 µM); MIC [27]: 8 µg/mL (≈ 9.53 µM); MIC [28]: > 128 µg/mL
2 | CCC1OC(=O)CC(O)C(C)C(OC2OC(C)C(O)C(N(C)C)C2O)C(CCN2C3CCCCC3C3CCCCC32)CC(C)C(=O)C=CC(C)=CC1COC1OC(C)C(O)C(OC)C1OC (stereo not drawn) [Compound D25, 20-DH-DO-20-(Dodecahydrocarbazol-9-yl) desmycosin] | 4 (≈ 4.28 µM) | 0.25 (≈ 0.267 µM) | 0.5 (≈ 0.535 µM) | 7/10 | 128 (≈ 137 µM) | 4 (≈ 4.28 µM) | 16 (≈ 17.1 µM) | 1 (≈ 1.07 µM) | 0.5 (≈ 0.535 µM) | 128 (≈ 137 µM) | 0/10 | 0.5 (≈ 0.535 µM) | 0.25 (≈ 0.267 µM) | 3.12 (≈ 3.34 µM) | 0.39 (≈ 0.417 µM) | 0.097 (≈ 0.104 µM) | 0.39 (≈ 0.417 µM) | 12.5 (≈ 13.4 µM) | 3.12 (≈ 3.34 µM) | 12.5 (≈ 13.4 µM) | MIC [22]: 12.5 µg/mL (≈ 13.4 µM); MIC [23]: 3.12 µg/mL (≈ 3.34 µM); MIC [24]: 0.5 µg/mL (≈ 0.535 µM); MIC [25]: 0.5 µg/mL (≈ 0.535 µM); MIC [26]: 32 µg/mL (≈ 34.2 µM); pKa ([29]; Titratable groups): 9.95; pKa ([29]; Titratable groups (first value)): 7.95; MIC [27]: 8 µg/mL (≈ 8.55 µM); MIC [28]: 128 µg/mL (≈ 137 µM)
3 | CCC1OC(=O)CC(O)C(C)C(OC2OC(C)C(O)C(N(C)C)C2O)C(CCN2CCC3(CC2)OCCO3)CC(C)C(=O)C=CC(C)=CC1COC1OC(C)C(O)C(OC)C1OC (stereo not drawn) [Compound D28, 20-DH-DO-20-[4-(ethylenedioxy)piperidin-1-yl]desmycosin] | 8 (≈ 8.9 µM) | 0.5 (≈ 0.556 µM) | 2 (≈ 2.22 µM) | 7/10 | > 128 | 8 (≈ 8.9 µM) | 32 (≈ 35.6 µM) | 4 (≈ 4.45 µM) | 2 (≈ 2.22 µM) | 64 (≈ 71.2 µM) | 0/10 | 2 (≈ 2.22 µM) | 1 (≈ 1.11 µM) | 3.12 (≈ 3.47 µM) | 0.097 (≈ 0.108 µM) | 0.195 (≈ 0.217 µM) | 1.56 (≈ 1.74 µM) | 25 (≈ 27.8 µM) | 25 (≈ 27.8 µM) | 25 (≈ 27.8 µM) | ED50 ([7]; C203, Oral): 77 mg/kg; ED50 ([7]; C203, sc, Subcutaneous): 0.75 mg/kg; MIC [22]: 6.25 µg/mL (≈ 6.95 µM); MIC [23]: 3.12 µg/mL (≈ 3.47 µM); MIC [24]: 2 µg/mL (≈ 2.22 µM); MIC [25]: 2 µg/mL (≈ 2.22 µM); MIC [26]: 64 µg/mL (≈ 71.2 µM); MIC [27]: 32 µg/mL (≈ 35.6 µM); MIC [28]: > 128 µg/mL
